# Measurements from patent US20220162191A1, “SMALL MOLECULE MODULATORS OF IL-17” (LEO PHARMA A/S, priority 2019, published 2022).
# Molecular target: T1, human IL-17AA (Homo sapiens, UniProt Q16552)
# T1 construct: host or cells: HEK (human embryonic kidney) cells
# T1 sequence (Q16552 24-155) 1: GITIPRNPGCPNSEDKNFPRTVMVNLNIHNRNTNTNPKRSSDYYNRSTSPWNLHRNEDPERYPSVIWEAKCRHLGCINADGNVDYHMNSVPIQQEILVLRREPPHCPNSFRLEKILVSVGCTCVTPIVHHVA
# T1 sequence (Q16552 24-155) 2: T1 sequence (Q16552 24-155) 1
# Test: IL-8 release assay in human epithelial keratinocytes adult (HEKa)
# Format: cell-based
# Settings: 3 ng/ml human IL-17AA + 10 ng/ml human TNFalpha, 68-72 h, IL-8 by HTRF, read-out: Rel EC50 L-8 release assay
# Procedure: Example: IL-8 release assay in human epithelial keratinocytes adult (HEKa) Keratinocytes were seeded at 3500 cells/well in 384-well ViewPlates (Perkin Elmer) in Epilife medium (Thermo Fisher) containing human keratinocyte growth supplement (HKGS) without hydrocortisone and incubated in a humid incubator at 37° C., 5% CO2, overnight. The following day growth medium was removed and 25 μl fresh Epilife 10 medium added. 75 nl test compound in 100% DMSO was added into each well reserved
# for test compounds, by the use of acoustic pipetting. The remaining wells received an equal volume of DMSO only, as vehicle control, or terfenadine in DMSO, as a positive control for any cytotoxic compounds. Subsequently, another 25 μl Epilife medium was added to each well. Finally, wells containing test compounds and wells prepared to yield 15 maximum stimulation received 25 μl of 9 ng/ml recombinant, human embryonic kidney cell (HEK)-derived human IL-17AA+30 ng/ml human TNF-alpha, in Epilife medium. Wells prepared to define 100% inhibition of IL-17 effects received 25 μl of 30 ng/ml human TNF-alpha alone, in Epilife medium. Final concentrations were 3 ng/ml HEKhuman IL-17AA+10 ng/ml human TNFalpha (maximum stimulation) and 10 ng/ml 20 human TNFalpha alone (100% inhibition, Emax), respectively. Cells were incubated for 68-72 h in the incubator. IL-8 released from the cells was measured by the use of a commercial homogenous time-resolved fluorescence (HTRF) assay (CisBio). 2 μl cell culture supernatant was transferred to a 384-well Proxiplate. 5 μl HTRF reagent was added and the plates incubated sealed in the dark for 3-22 h at room temperature. Time resolved fluorescence was read at 665 vs 620 nm, with excitation at 320 nm, and IL-8 levels calculated as percent of controls. Reduction of the amount of secreted IL-8 indicates decreased IL-17 signaling. Concentration response curves were fitted by the use of a four-parameter logistic equation. Relative IC50 and Emax were reported from 5 curves showing acceptable fit (r2>0.9). Cytotoxicity was measured in the cell-containing
# Compounds of the present invention were tested in the IL-8 release assay in human epithelial keratinocytes.
row,Structure (SMILES),EC50 [nM]
1,"Cn1cnnc1-c1ccc(NC(=O)C(Cc2cc(-c3ccc(O)c(C(=O)N4CCNCC4)c3)ccc2Cl)NC(=O)c2ccnn2C)cc1 (centres unmarked) [Example 173, N-[1-[[2-chloro-5-[4-hydroxy-3-(piperazine-1-carbonyl)phenyl]phenyl]methyl]-2-[4-(4-methyl-1,2,4-triazol-3-yl)anilino]-2-oxo-ethyl]-2-methyl-pyrazole-3-carboxamide]",> 1000
2,"Cc1n[nH]c(C)c1-c1ccc(NC(=O)[C@@H](NC(=O)c2ccnn2C)[C@@H]2CCCc3ccc(-c4cccc(CN5CCC5)c4)cc32)cc1 [Example 388, N-[(1S)-1-[(1R)-7-[3-(azetidin-1-ylmethyl)phenyl]tetralin-1-yl]-2-[4-(3,5-dimethyl-1H-pyrazol-4-yl)anilino]-2-oxo-ethyl]-2-methyl-pyrazole-3-carboxamide]",< 100
3,"Cn1cncc1-c1ccc(NC(=O)[C@H](Cc2cc(-c3ccnc(C(O)C4CC4)c3)ccc2Cl)NC(=O)C2(F)CC2)cc1 (stereo partly drawn) [Example 124, N-[(1S)-1-[[2-chloro-5-[2-[cyclopropyl(hydroxy)methyl]-4-pyridyl]phenyl]methyl]-2-[4-(3-methylimidazol-4-yl)anilino]-2-oxo-ethyl]-1-fluoro-cyclopropanecarboxamide]",100 to 1000
4,"Cn1cncc1-c1ccc(NC(=O)[C@@H](NC(=O)C2(F)CC2)[C@@H]2CCCc3ccc(-c4ccnc(N5C[C@H]6C[C@@H]5CO6)c4)cc32)cc1O [Example 404, 1-fluoro-N-[(1S)-2-[3-hydroxy-4-(3-methylimidazol-4-yl)anilino]-1-[(1R)-7-[2-[(1R,4R)-2-oxa-5-azabicyclo[2.2.1]heptan-5-yl]-4-pyridyl]tetralin-1-yl]-2-oxo-ethyl]cyclopropanecarboxamide]",> 1000
5,"Cn1cnnc1-c1ccc(NC(=O)C(Cc2cc(-c3ccc(O)c(CN4CCC4)c3)ccc2Cl)NC(=O)c2ccnn2C)cc1 (centres unmarked) [Example 168, N-[1-[[5-[3-(azetidin-1-ylmethyl)-4-hydroxy-phenyl]-2-chloro-phenyl]methyl]-2-[4-(4-methyl-1,2,4-triazol-3-yl)anilino]-2-oxo-ethyl]-2-methyl-pyrazole-3-carboxamide]",100 to 1000
6,"CC(C)n1cc(-c2ccc3c(c2)[C@H]([C@H](NC(=O)c2ccnn2C)C(=O)Nc2ccc(-c4cncn4C)cc2)CCC3)ccc1=O [Example 30, N-[(1S)-1-[(1R)-7-(1-isopropyl-6-oxo-3-pyridyl)tetralin-1-yl]-2-[4-(3-methylimidazol-4-yl)anilino]-2-oxo-ethyl]-2-methyl-pyrazole-3-carboxamide]",< 100
7,"Cc1n[nH]c(C)c1-c1ccc(NC(=O)[C@@H](NC(=O)c2ccnn2C)[C@@H]2CCc3ccc(-c4ccc(CN5CCOCC5)cc4)cc32)cc1 [Example 2, N-[(1S)-2-[4-(3,5-dimethyl-1H-pyrazol-4-yl)anilino]-1-[(1R)-6-[4-(morpholinomethyl)phenyl]indan-1-yl]-2-oxo-ethyl]-2-methyl-pyrazole-3-carboxamide]",< 100
8,"CC(C)n1cc(-c2ccc(Cl)c(CC(NC(=O)c3ccnn3C)C(=O)Nc3ccc(-c4cnn[nH]4)cc3)c2)ccc1=O (centres unmarked) [Example 83, N-[1-[[2-chloro-5-(1-isopropyl-6-oxo-3-pyridyl)phenyl]methyl]-2-oxo-2-[4-(1H-triazol-5-yl)anilino]ethyl]-2-methyl-pyrazole-3-carboxamide]",100 to 1000
9,"Cn1cncc1-c1ccc(NC(=O)C(Cc2cc(-c3ccnc(N4CCNCC4)c3)ccc2Cl)NC(=O)c2ccnn2C)cc1 (centres unmarked) [Example 197, N-[1-[[2-chloro-5-(2-piperazin-1-yl-4-pyridyl)phenyl]methyl]-2-[4-(3-methylimidazol-4-yl)anilino]-2-oxo-ethyl]-2-methyl-pyrazole-3-carboxamide]",100 to 1000
10,"CC(C)n1cc(-c2cccc(C(c3ccccc3)C(NC(=O)c3ccnn3C)C(=O)Nc3ccc(-c4cncn4C)cc3)c2)ccc1=O (single isomer, unassigned; diastereomer 2) [Example 232, N-[1-[[3-(1-isopropyl-6-oxo-3-pyridyl)phenyl]-phenyl-methyl]-2-[4-(3-methylimidazol-4-yl)anilino]-2-oxo-ethyl]-2-methyl-pyrazole-3-carboxamide (Diastereomer 2)]",> 1000
11,"Cc1n[nH]c(C)c1-c1ccc(NC(=O)[C@@H](NC(=O)C2(F)CC2)[C@@H]2CCc3ccc(-c4cc(N5C[C@@H]6C[C@H]5CO6)ccn4)cc32)cc1 [Example 368, N-[(1S)-2-[4-(3,5-dimethyl-1H-pyrazol-4-yl)anilino]-1-[(1R)-6-[4-[(1S,4S)-2-oxa-5-azabicyclo[2.2.1]heptan-5-yl]-2-pyridyl]indan-1-yl]-2-oxo-ethyl]-1-fluoro-cyclopropanecarboxamide]",100 to 1000
12,"Cc1n[nH]c(C)c1-c1ccc(NC(=O)[C@@H](NC(=O)C2(F)CC2)[C@@H]2CCc3ccc(-c4ccc(=O)n(C(C)C)c4)cc32)cc1 [Example 6, N-[(1S)-2-[4-(3,5-dimethyl-1H-pyrazol-4-yl)anilino]-1-[(1R)-6-(1-isopropyl-6-oxo-3-pyridyl)indan-1-yl]-2-oxo-ethyl]-1-fluoro-cyclopropanecarboxamide]",100 to 1000
13,"Cc1n[nH]cc1-c1ccc(NC(=O)C(NC(=O)OC2CC2)C(c2ccccc2)c2cccc(-c3ccc(=O)n(C(C)C)c3)c2)cc1 (single isomer, unassigned; diastereomer 4) [Example 245, cyclopropyl N-[1-[[3-(1-isopropyl-6-oxo-3-pyridyl)phenyl]-phenyl-methyl]-2-[4-(3-methyl-1H-pyrazol-4-yl)anilino]-2-oxo-ethyl]carbamate (Diastereomer 4)]",< 100

# Other lines, results leading:
row,EC50 [nM],Structure (SMILES)
1,100 to 1000,"Cc1nocc1C(=O)N[C@@H](Cc1cc(-c2ccnc(C(O)C3CC3)c2)ccc1Cl)C(=O)Nc1ccc(-n2ccnc2C)cc1 (stereo partly drawn) [Example 125, N-[(1S)-1-[[2-chloro-5-[2-[cyclopropyl(hydroxy)methyl]-4-pyridyl]phenyl]methyl]-2-[4-(2-methylimidazol-1-yl)anilino]-2-oxo-ethyl]-3-methyl-isoxazole-4-carboxamide]"
2,< 100,"CC(C)n1cc(-c2ccc(Cl)c(C[C@H](NC(=O)c3ccnn3C)C(=O)Nc3ccc(-c4cn[nH]c4)c(O)c3)c2)ccc1=O [Example 175, N-[(1S)-1-[[2-chloro-5-(1-isopropyl-6-oxo-3-pyridyl)phenyl]methyl]-2-[3-hydroxy-4-(1H-pyrazol-4-yl)anilino]-2-oxo-ethyl]-2-methyl-pyrazole-3-carboxamide]"
3,> 1000,"CC(C)n1cc(-c2ccc(Cl)c(C[C@H](NC(=O)C3(F)CCC3)C(=O)Nc3ccc(-c4nncn4C)cc3)c2)ccc1=O [Example 148, N-[(1S)-1-[[2-chloro-5-(1-isopropyl-6-oxo-3-pyridyl)phenyl]methyl]-2-[4-(4-methyl-1,2,4-triazol-3-yl)anilino]-2-oxo-ethyl]-1-fluoro-cyclobutanecarboxamide]"
4,100 to 1000,"Cc1cnn(C)c1-c1ccc(NC(=O)[C@@H](NC(=O)c2ccnn2C)[C@@H]2CCc3ccc(-c4cncc(C5CC5)n4)cc32)cc1 [Example 380, N-[(1S)-1-[(1R)-6-(6-cyclopropylpyrazin-2-yl)indan-1-yl]-2-[4-(2,4-dimethylpyrazol-3-yl)anilino]-2-oxo-ethyl]-2-methyl-pyrazole-3-carboxamide]"
5,< 100,"Cc1cnn(C)c1-c1ccc(NC(=O)[C@@H](NC(=O)c2ccnn2C)[C@@H](c2cccc(-c3cncc(N4C[C@@H]5C[C@H]4CO5)n3)c2)C2CC2)cc1 [Example 349, N-[(1S)-1-[(R)-cyclopropyl-[3-[6-[(1S,4S)-2-oxa-5-azabicyclo[2.2.1]heptan-5-yl]pyrazin-2-yl]phenyl]methyl]-2-[4-(2,4-dimethylpyrazol-3-yl)anilino]-2-oxo-ethyl]-2-methyl-pyrazole-3-carboxamide]"
6,100 to 1000,"Cc1n[nH]c(C)c1-c1ccc(NC(=O)[C@@H](NC(=O)c2ccnn2C)[C@@H]2CCc3ccc(-c4ccc(CN5CCCC5)cc4)cc32)cc1 [Example 19, N-[(1S)-2-[4-(3,5-dimethyl-1H-pyrazol-4-yl)anilino]-2-oxo-1-[(1R)-6-[4-(pyrrolidin-1-ylmethyl)phenyl]indan-1-yl]ethyl]-2-methyl-pyrazole-3-carboxamide]"
7,> 1000,"CC(C)n1cc(-c2ccc(Cl)c(CC(NC(=O)C3(F)CC3)C(=O)Nc3ccc(-c4nncn4C)cc3)c2)cc(C(F)(F)F)c1=O (centres unmarked) [Example 307, N-[1-[[2-chloro-5-[1-isopropyl-6-oxo-5-(trifluoromethyl)-3-pyridyl]phenyl]methyl]-2-[4-(4-methyl-1,2,4-triazol-3-yl)anilino]-2-oxo-ethyl]-1-fluoro-cyclopropanecarboxamide]"
